This note sets out measurements from patent US20120035196A1, “CARBOXYLIC ACID COMPOUND” (priority 2009, published 2012).

One test addresses T1, human GPR40 (Homo sapiens, UniProt O14842, R211H).
T1 construct: expressed in transfected cells
The test can be described thus: Measurement of GPR40 agonistic activity (FLIPR, change in intracellular calcium concentration). To be noted: CHO cell strain expressing human GPR40; changes in fluorescence intensity after 1 minute. It is filed as cell-based. The source says: Test Method 1: Measurement of GPR40 Agonistic Activity i) Cloning of Human GPR40
A full-length sequence of GPR40 was obtained by PCR method using human genomic DNA (Clontech) as a template in accordance with the procedure shown below.
An oligonucleotide consisting of the base sequence represented by SEQ ID NO: 1 was used as the forward primer, and an oligonucleotide consisting of the base sequence represented by SEQ ID NO: 2 as the reverse primer. In this connection, a base sequence comprising a XbaI recognition region was added to the respective 5′-termini of the aforementioned forward primer and reverse primer. PCR was carried out in the presence of 5% dimethylsulfoxide (DMSO) using a Taq DNA polymerase (Ex Taq DNA polymerase; Takara Bio), by repeating 30 times of a cycle consisting of 94° C. (15 seconds)/55° C. (30 seconds)/72° C. (1 minute). As a result, a DNA fragment of about 0.9 kbp was amplified. This DNA fragment was digested with XbaI and then inserted into the XbaI site of a plasmid pEF-BOS-dhfr (Nucleic acids Research, 18, 5322, 1990), thereby obtaining a plasmid pEF-BOS-dhfr-GPR40.
The base sequence of the GPR40 gene in the pEF-BOS-dhfr-GPR40 was determined by the dideoxy terminator method using a DNA sequencer (ABI 377 DNA Sequencer, Applied Biosystems). The base sequence of the GPR40 gene was represented by the base sequence SEQ ID NO: 3. […]
ii) Preparation of GPR40 Stable Expression Cell
As the cell for expressing GPR40 protein, a CHO dhfr cell (a dihydrofolate reductase (dhfr) gene-deficient CHO cell) was used. Also, as the plasmid for expressing GPR40 protein, the plasmid pEF-BOS-dhfr-GPR40 obtained in the aforementioned i) was used. The CHO dhfr cell was inoculated into an αMEM medium containing 10% fetal calf serum (FCS) using a 6 well plate (Asahi Techno Glass) and cultured overnight to a confluence of 80 to 90%, and then 2 μg per well of the plasmid pEF-BOS-dhfr-GPR40 was gene-transferred using a transfection reagent (Lipofectamine 2000; Invitrogen). After 24 hours of culturing from the gene transfer, the cells were diluted and inoculated again. […] After 20 days of culturing, the formed colonies of cells were individually recovered and cultured to obtain CHO cells stably expressing GPR40. From these, cells having high reactivity for intrinsic ligands oleic acid and linoleic acid were selected. […]
iii) Measurement of GPR40 Agonistic Activity
The present test was measured by FLIPR (registered trademark, Molecular Devices) using a change in intracellular calcium concentration as the index. Hereinafter, the test method will be shown.
A CHO cell strain in which human GPR40 was expressed was inoculated into a 384 well black plate (Becton Dickinson) at 6×10^3 cells per well portion and cultured overnight in a CO2 incubator.
Using a Calcium-3 assay kit (Molecular Devices), one bottle of the phosphorescent pigment was dissolved in 10 ml of HBSS-HBEPES buffer (pH 7.4, 1×HBSS, 20 mM HEPES, Invitrogen). 35.68 mg of Probenecid (Sigma) was dissolved in 250 μl of 1 M NaOH and adjusted by adding 250 μl of the HBSS-HEPES buffer. A phosphorescent pigment solution was prepared by mixing 16 ml of HBSS-HEPES buffer, 640 μl of the phosphorescent pigment and 32 μl of probenecid per one plate. The medium was discarded from the plate, and the phosphorescent pigment solution was dispensed at 40 μl per well portion and then incubated at room temperature for 2 hours. Each compound to be tested was dissolved in DMSO and then diluted with HBSS-HEPES buffer and dispensed in 10 μl portions into the plate, thereby starting the reaction, and changes in the intracellular calcium concentration were measured by FLIPR. The EC50 value of each compound to be tested was calculated by a dose-response curve of changes in fluorescence intensity after 1 minute of the measurement.

Another test concerns Male ICR mice. The test can be described thus: Normal mice single oral glucose tolerance test. The test is classed as in vivo. To be noted: Mus musculus, 0.5 h, orally 10 mg/kg 30 minutes before glucose loading (2 g/kg), 30 minutes after glucose loading, relative to control group, read-out: Blood glucose increase inhibition rate. As for the experimental part:
Test Method 3: Normal Mice Single Oral Glucose Tolerance Test
The present test was to examine the blood glucose increase inhibiting action of the test compound after glucose loading, using normal mice. Hereinafter, the test method will be shown.
Male ICR mice (6 weeks of age) after 1 week of acclimatization were subjected to overnight fasting and used as test animals. The test compound was made into a 0.01 M aqueous sodium hydroxide solution and orally administered at a dose of 10 mg/kg 30 minutes before the glucose loading (2 g/kg). A 0.01 M aqueous sodium hydroxide solution was administered to the control group. The blood glucose increase inhibitory ratio (%) after 30 minutes of glucose loading was calculated, relative to the control group.
When the compound of Example 72 described in Pamphlet of International Publication WO2005/087710 was orally administered at 10 mg/kg by the same method as the test method 3 above, the blood glucose increase inhibition rate was measured and found to be 9%, whereas when the compound was orally administered at 30 mg/kg, the blood glucose increase inhibition rate was 20%. […] Further, in the present test, a minimum administration amount showing a blood glucose increase inhibition rate of 20% or more or a minimum administration amount showing a significance (Dunnet multiple comparison test) relative to a control was taken as a minimum effective dose (MED).

T1 sequence (O14842 whole entry R211H): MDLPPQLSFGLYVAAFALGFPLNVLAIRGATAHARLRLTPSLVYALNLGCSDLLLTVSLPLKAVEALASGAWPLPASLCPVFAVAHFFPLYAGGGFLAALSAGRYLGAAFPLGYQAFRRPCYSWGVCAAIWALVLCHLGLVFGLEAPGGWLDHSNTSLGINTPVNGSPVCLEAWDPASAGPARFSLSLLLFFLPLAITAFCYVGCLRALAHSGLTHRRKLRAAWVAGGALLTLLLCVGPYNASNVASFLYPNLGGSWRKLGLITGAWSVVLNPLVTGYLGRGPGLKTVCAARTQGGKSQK

With `Cc1cc(OC[C@@H](O)CO)cc(C)c1-c1cccc(COc2ccc3c(c2)OC2(CC2)C3CC(=O)O)c1C` (single isomer, unassigned) [Example 25-5a], the half-maximal effective concentration (EC50) on human GPR40 is 350 nM. In the case of `Cc1cc(OC[C@@H](O)CO)cc(C)c1-c1cccc(COc2ccc3c(c2)OC2(CC2)C3CC(=O)O)c1C` (single isomer, unassigned) [Example 25-5b], the EC50 on human GPR40 came out at 260 nM.

`Cc1cc(OCC[C@H](O)CO)cc(C)c1-c1cccc(COc2ccc3c(c2)OC2(CC2)C3CC(=O)O)c1C` (single isomer, unassigned) [Example 25-7a]: the EC50 at human GPR40 was determined as 490 nM. As for `Cc1cc(OCC[C@H](O)CO)cc(C)c1-c1cccc(COc2ccc3c(c2)OC2(CC2)C3CC(=O)O)c1C` (single isomer, unassigned) [Example 25-7b], the 50% effective concentration (EC50) on human GPR40 turned out to be 330 nM. Regarding `Cc1cc(OCCO)cc(C)c1-c1cccc(CNc2ccc3c(c2)CC2(CC2)C3CC(=O)O)c1C` (single isomer, unassigned) [Example 25b, [5′-({[4′-(2-hydroxyethoxy)-2,2′,6′-trimethylbiphenyl-3-yl]methyl}amino)-1′,3′-dihydrospiro[cyclopropan-1,2′-inden]-1′-yl]acetic acid], the EC50 at human GPR40 is 210 nM. For the same compound, the inhibition in vivo at 10 mg/kg with Male ICR mice turned out to be 33%. Taken in the same sequence, the figures for `Cc1cc(OCCO)cc(C)c1-c1cccc(COc2ccc3c(c2)-c2ccccc2C3CC(=O)O)c1C` (stereo not drawn) [Example 2, sodium (3-{[4′-(2-hydroxyethoxy)-2,2′,6′-trimethylbiphenyl-3-yl]methoxy}-9H-fluoren-9-yl)acetate] were 520 nM and 37%. For `Cc1cc(OCCC(C)(C)O)cc(C)c1-c1cccc(CNc2ccc3c(c2)CC2(CC2)C3CC(=O)O)c1C` (stereo not drawn) [Example 2-2], the EC50 on human GPR40 turned out to be 790 nM. In addition, the inhibition in vivo at 10 mg/kg in the test on Male ICR mice came to 34%. As to `Cc1cc(OC[C@H](O)CO)cc(C)c1-c1cccc(COc2ccc3c(c2)CC2(CC2)C3CC(=O)O)c1C` (stereo partly drawn) [Example 4, sodium {5′-[(4′-{[(2R)-2,3-dihydroxypropyl]oxy}-2,2′,6′-trimethylbiphenyl-3-yl)methoxy]-1′,3′-dihydrospiro[cyclopropan-1,2′-inden]-1′-yl}acetate], the concentration for a half-maximal effect (EC50) at human GPR40 was found to be 250 nM. Further, the inhibition in vivo at 10 mg/kg with Male ICR mice turned out to be 20%. For `Cc1cccc(C)c1-c1cccc(COc2ccc3c(c2)-c2ccccc2C3CC(=O)O)c1C` (stereo not drawn) [Example 6, 0.5 calcium {3-[(2,2′,6′-trimethylbiphenyl-3-yl)methoxy]-9H-fluoren-9-yl}acetate], the EC50 on human GPR40 came to 780 nM. In addition, the inhibition in vivo at 10 mg/kg with Male ICR mice was 35%. On to `Cc1cc(OC[C@H](O)CO)cc(C)c1-c1cccc(COc2ccc3c(c2)-c2ccccc2C3CC(=O)O)c1C` (stereo partly drawn) [Example 8, sodium {3-[(4′-{[(2R)-2,3-dihydroxypropyl]oxy}-2,2′,6′-trimethylbiphenyl-3-yl)methoxy]-9H-fluoren-9-yl}acetate], for which the EC50 on human GPR40 stood at 610 nM. The inhibition in vivo at 10 mg/kg in the test on Male ICR mice is 25%. The matching figures for `COCCOc1cc(C)c(-c2cccc(CNc3ccc4c(c3)CC3(CC3)C4CC(=O)O)c2C)c(C)c1` (stereo not drawn) [Example 8-3]: 610 nM and 21%. As to `Cc1nc(OCCC(C)(C)O)nc(C)c1-c1cccc(COc2ccc3c(c2)CC2(CC2)C3CC(=O)O)c1C` (stereo not drawn) [Example 8-12], the concentration for a half-maximal effect (EC50) on human GPR40 came out at 590 nM. In addition, the inhibition in vivo at 10 mg/kg in the test on Male ICR mice was 24%.

Regarding `Cc1cc(OCCO)cc(C)c1-c1cccc(COc2ccc3c(c2)OC2(CC2)C3CC(=O)O)c1C` (stereo not drawn) [Example 20, sodium (6-{[4′-(2-hydroxyethoxy)-2,2′,6′-trimethylbiphenyl-3-yl]methoxy}-3H-spiro[1-benzofuran-2,1′-cyclopropan]-3-yl)acetate], on human GPR40, the concentration giving a half-maximal response (EC50) is 490 nM. For the same compound, the inhibition in vivo at 10 mg/kg in the test on Male ICR mice turned out to be 40%. Taken in the same sequence, the figures for `Cc1cc(OCCC(C)(C)O)cc(C)c1-c1cccc(COc2ccc3c(c2)OC2(CC2)C3CC(=O)O)c1C` (stereo not drawn) [Example 21, sodium (6-{[4′-(3-hydroxy-3-methylbutoxy)-2,2′,6′-trimethylbiphenyl-3-yl]methoxy}-3H-spiro[1-benzofuran-2,1′-cyclopropan]-3-yl)acetate] were 810 nM and 43%. The matching figures for `COCCOc1cc(C)c(-c2cccc(COc3ccc4c(c3)OC3(CC3)C4CC(=O)O)c2C)c(C)c1` (stereo not drawn) [Example 21-1]: 750 nM and 30%.

As to `CCOCCOc1cc(C)c(-c2cccc(COc3ccc4c(c3)OC3(CC3)C4CC(=O)O)c2C)c(C)c1` (stereo not drawn) [Example 21-2], the EC50 on human GPR40 stood at 810 nM. Besides, the inhibition in vivo at 10 mg/kg in the test with Male ICR mice was found to be 23%. Take `COCCCOc1cc(C)c(-c2cccc(COc3ccc4c(c3)OC3(CC3)C4CC(=O)O)c2C)c(C)c1` (stereo not drawn) [Example 21-3]: the concentration giving a half-maximal response (EC50) at human GPR40 is 710 nM. In addition, the inhibition in vivo at 10 mg/kg in the test on Male ICR mice stood at 32%. Turning to `Cc1cc(OC[C@H](O)CO)cc(C)c1-c1cccc(COc2ccc3c(c2)OC2(CC2)C3CC(=O)O)c1C` (stereo partly drawn) [Example 22, sodium {6-[(4′-{[(2R)-2,3-dihydroxypropyl]oxy}-2,2′,6′-trimethylbiphenyl-3-yl)methoxy]-3H-spiro[1-benzofuran-2,1′-cyclopropan]-3-yl}acetate], the EC50 on human GPR40 was found to be 250 nM. In the test on Male ICR mice, the inhibition in vivo at 10 mg/kg is 34%. In the case of `Cc1cc(OC[C@@H](O)CO)cc(C)c1-c1cccc(COc2ccc3c(c2)OC2(CC2)C3CC(=O)O)c1C` (stereo partly drawn) [Example 22-1], the half-maximal effective concentration (EC50) at human GPR40 was 270 nM. Besides, the inhibition in vivo at 10 mg/kg in the test on Male ICR mice came to 35%. Regarding `Cc1cc(OCC[C@@H](O)CO)cc(C)c1-c1cccc(COc2ccc3c(c2)OC2(CC2)C3CC(=O)O)c1C` (stereo partly drawn) [Example 22-2], on human GPR40, the 50% effective concentration (EC50) was 430 nM. The inhibition in vivo at 10 mg/kg in the test with Male ICR mice was found to be 34%. Taken in the same sequence, the figures for `Cc1cc(OCC[C@H](O)CO)cc(C)c1-c1cccc(COc2ccc3c(c2)OC2(CC2)C3CC(=O)O)c1C` (stereo partly drawn) [Example 22-3] were 470 nM and 38%.

On to `Cc1nc(OCCO)nc(C)c1-c1cccc(COc2ccc3c(c2)CC2(CC2)C3CC(=O)O)c1C` (stereo not drawn) [Example 23, [5′-({3-[2-(2-hydroxyethoxy)-4,6-dimethylpyrimidin-5-yl]-2-methylbenzyl}oxy)-1′,3′-dihydrospiro[cyclopropan-1,2′-inden]-1′-yl]acetic acid], for which the EC50 at human GPR40 is 520 nM. In addition, the inhibition in vivo at 10 mg/kg in the test on Male ICR mice turned out to be 20%. Regarding `Cc1cc(OCCO)cc(C)c1-c1cccc(COc2ccc3c(c2)OC2(CC2)C3CC(=O)O)c1C` (stereo not drawn) [Example 25-3a], the EC50 on human GPR40 worked out at 560 nM. Same read-out and setting: with `Cc1cc(OCCO)cc(C)c1-c1cccc(COc2ccc3c(c2)OC2(CC2)C3CC(=O)O)c1C` (stereo not drawn) [Example 25-3b] the figure was 190 nM.
